Laboratory results taken from a melting point compilation (Tetko et al.; mined from patent text by program, amines drawn as free bases though some values may be those of a salt).

SMILES	melting point [°C]
CC(=O)C1=CCC2C3CCC4CC5OC5CC4(C)C3CCC12C (stereo not given)	145 to 149
CS(=O)(=O)N1CCN([C@@H](CNC(=O)c2ccc(OCc3ccc(C(F)(F)F)cc3)cc2)C(=O)NO)CC1	192
COc1ccccc1N1CCN(CCCn2c(=O)[nH]c3c(c2=O)CCCC3)CC1	212 to 214
COC(=O)c1c[nH]c(-c2ccc(OC)cc2)n1	188 to 190
CSCC[C@H](NC(=O)[C@@H]1CS[C@H](c2ccccc2O)N1C(=O)CCSC(C)=O)C(=O)O	59 to 64
CNCCOc1ccc(C(=O)NC)cc1	95 to 96
CC(C)(C)C(=O)Nc1ccc2oc3c(c2c1)CCCCC3	208 to 209
O=C1Cc2c(Cl)cccc2Sc2cc(F)ccc21	109 to 111
CN(Cc1cc2c(=O)c(C(=O)NCc3ccc(Cl)cc3)cn(C)c2s1)CC(O)c1ccccc1 (stereo not given)	162 to 164
CCOC=Cc1ncnc2c1ncn2Cc1ccccc1	114 to 115
O=C(c1ccc(Cl)cc1)c1ccc(Cc2c(Cl)cc(N3N=CCNC3=O)cc2Cl)cc1	205 to 206
CCCC(=O)Nc1cc(Cl)c(O)c(Cl)c1	146 to 147
Cc1nc(C)c(-c2ccnc(Nc3cccc(CN)c3)n2)s1	183 to 184
COc1ccc(-c2nc(COCCc3cccc(NS(=O)(=O)C(F)(F)F)c3)cs2)cc1	112 to 113
N#Cc1cc(F)c(F)c(Br)c1Cl	71 to 72.5
CC(=O)OCCn1ccc(=O)c(OCc2ccccc2)c1C(OC(C)=O)c1ccccc1F (stereo not given)	173 to 174
COc1cc2c(Nc3ccc(Cl)cc3F)ncnc2cc1OCCN1C(=O)CCCC1=O	202 to 203
Cc1cccc2c1CCN=C2c1ccc(Cl)cc1	66 to 67
CC(=NO)c1cc2c3ccccc3[nH]c(=O)n2n1	340 to 342
N#Cc1cc([N+](=O)[O-])ccc1Sc1ccccc1	82 to 84
CCOC(=O)c1sc(S(C)(=O)=O)c2c1CCc1cnn(C)c1-2	140 to 141
O=C(O)CCOc1cccc2c1Cc1sc(SCCC(c3ccccc3)c3ccccc3)nc1-2	113 to 114
O=S(=O)(CCNc1ccc(Cl)c(C(F)(F)F)c1)NCCCOc1cccc(CN2CCCCC2)c1	115 to 120
Cc1ccc2nc(-c3ccccc3F)cc(OCc3ccccc3)c2c1	91.5 to 92.8
N#Cc1cnn(-c2ccc(F)cc2F)c1Cl	120 to 122

SMILES	melting point [°C]
COC(=O)c1cc(OC)c(OC)c2c1C=CCO2	88.5 to 90
CCCCCCCc1ccccc1C=CC(=O)c1ccc(OCC=C(C)C)cc1OCC(=O)O	118 to 121
COc1ccc2c3c1OC1C4(CCC5(F)C(C2)N(C(=O)C2CC2)CCC315)OCCO4 (stereo not given)	191 to 193
CC(C)(C)OC(=O)NC(Cc1cc(C(=O)c2cc(C(F)(F)F)cc(C(F)(F)F)c2)ccc1N)C(=O)OC(C)(C)C (stereo not given)	134 to 135
CCOc1ccccc1NC(N)=S	174
CC(CCC(=O)NC(C)(C)CO)C1CCC2C3C(=O)CC4CC(O)CCC4(C)C3CC(O)C12C (stereo not given)	229 to 231
CCC(=O)CNC(=O)c1cc(OC)cc(Oc2cccc(C(F)(F)F)c2)n1	100 to 103
CCCCc1ncc(CO)n1Cc1ccccc1Cl	86 to 88
CCOC(=O)CCCCCOc1ccc(Nc2ccncc2)cc1	104 to 106
COc1ccc(CC(=O)c2ccc(OC)c(F)c2)cc1F	151 to 152
N#CC=Cc1ccc(C(=O)O)cc1	281
Cn1c(=Nc2nc(C(Cl)(Cl)Cl)nc(C(Cl)(Cl)Cl)n2)sc2ccccc21	251 to 253
COC(=O)c1cc(Cl)c(OCCn2ccnc2)s1	97 to 99
Cn1c(C(F)(F)F)cc(=O)n(-c2ccc3snc(N4CCOCC4)c3c2)c1=O	200 to 205
Oc1ccccc1Nc1nccc(-c2cccnc2)n1	166 to 169
O=C1NC(=O)c2c1c(-c1ccccc1Cl)cc1c2c2cc(O)ccc2n1CCCSc1ccccc1	229 to 231
COC(=O)C(=Cc1c[nH]c2cc(Cl)ccc12)[N+](=O)[O-]	159 to 160
O=C(NC(CS)Cc1ccccc1)N1CCOCC1 (single isomer, unassigned; (+))	84
O=C(c1ccccc1)N1CCCSC1=C[N+](=O)[O-]	90 to 92
COc1ccc(/C=C/c2ccncn2)cc1OC1CCCC1	83 to 84.5
CCCCCCn1c2ccc(C)cc2c(=O)c2c1cnn2C	80 to 82
NC(=O)N1C(=O)C(C(=O)c2cc(Cl)cs2)c2cc(Cl)ccc21 (stereo not given)	212 to 214
C=CCOC(=O)c1c(C)c(OC)cc(O[Si](C)(C)C(C)(C)C(C)C)c1C=O	81 to 82
COc1cc(SC(F)F)nc(N)n1	83 to 84
CC(=O)OC(C)c1cc2c(s1)C(=O)c1ccsc1C2=O (stereo not given)	174 to 176

SMILES	melting point [°C]
CC(=O)c1ccc(-c2nc(=O)c3ccccc3s2)nc1	276 to 277
Cn1nc(OCCCc2cc(-c3ccc(C(F)(F)F)cc3)no2)cc1C(=O)O	162 to 163
CNC(=O)c1cc(C)ccc1NC(=O)c1ccc(O)cc1	250 to 252
COCOc1ccc(Cl)cc1-c1cc(-c2cccc([N+](=O)[O-])c2)c(C#N)c(NC(=O)c2ccccc2)n1	205 to 206
Cc1ncsc1C(=O)Nc1cnc(-n2nc(C(F)(F)F)cc2C2CC2)nc1	148 to 152
O=[N+]([O-])O[C@H]1COc2c(O)cccc2C1	129 to 130
COc1cccc2ncoc12	28 to 31
O=C(C=Cc1ccc2c(c1)OCO2)C1C(=O)CC(c2ccccc2)CC1=O (stereo not given)	157 to 158
COc1ccc(-c2c(Cl)c(CN3C(=O)CCC3=O)nc3sc4c(c23)CC[C@H](C(N)=O)C4)cc1	282 to 283
Cc1c(Cl)cc(C(=O)O)c(Cl)c1N	218 to 221
CCc1cccc2c(/C(C)=C/C(=O)O)cc(OC)c(OCOC)c12	114 to 115
Cn1c2cc(Cl)cc(Cl)c2c2cc(C(=O)N3CCOCC3)sc21	224 to 226
COc1cc(C(C)=O)ccc1OCCCN1C2CCC1CC(c1n[nH]c3ccccc13)C2 (stereo not given)	173 to 175
Cc1noc(NS(=O)(=O)c2ccccc2-c2cc3ccccc3n2S(=O)(=O)c2ccccc2)c1C	207 to 209
O=C(CCc1cccc(C(F)(F)F)c1)NNC(=O)c1ccc2ncsc2c1	206 to 207
CCOC(=O)C1=COc2ccc(OC(C)=O)cc2O1	66
NS(=O)(=O)c1ccc(-c2cccc(-c3nc(-c4ccc(Cl)cc4Cl)cc(C(F)(F)F)n3)c2)s1	238
Cn1cc(C(=O)c2cnc[nH]2)cc1C(=O)c1ccc(Cl)cc1	198 to 200
COc1ccc(NC(=O)OC(C)(C)C)c(C(=O)C2CC2)c1	96 to 97
COC(=O)CCC(=O)Nc1cccc2c1C(=O)N(C1CCC(=O)NC1=O)C2=O (stereo not given)	224 to 226
CC(C)(Cc1ccc(Cl)cc1Cl)C(O)(Cn1cncn1)Cn1cncn1	126
CC(C)C[C@H](NC(=O)N1CCCCCC1)C(=O)N[C@H](Cc1ccc(OCc2ccccc2)cc1)C(=O)OC(C)(C)C	38 to 40
CCOC(=O)c1cccc(C2COc3cc(O)c(O)cc3C2)c1 (stereo not given)	131 to 133
Cc1ccc(N2N=CC(=NNc3cccc(-c4cccc(C(=O)O)c4)c3O)C2=O)cc1C	226 to 228
CC(=O)NCCC1=CCc2ccc3c(c21)CCO3	153 to 155

SMILES	melting point [°C]
O=[S@@]1CCCC[C@@H]1c1cccnc1	124 to 126
O=C(Nc1ccc(O)cc1)C(=O)Nc1ccc(O)cc1	> 250
CC(=O)NC1(C)CCCc2nc(OCc3ccccc3)ccc21 (stereo not given)	153 to 154
COc1ccc(N(C(=O)CN2C(=O)C(Cc3n[nH]c4ncccc34)C(=O)N(c3ccccc3)c3ccccc32)C(C)C)cc1 (stereo not given)	156 to 158
CCOC(=O)c1cn(-c2cc(N(C)C)c(F)cc2F)c2nc(Cl)c(F)cc2c1=O	158 to 163
O=C1OC(Cc2ccccc2)CN1C(=O)c1ccccc1 (stereo not given)	109 to 110
CN(C)CCCOc1ccc(N(C(=O)c2ccc(F)cc2)c2ccccc2)cc1	82.5 to 83.5
CCOC(=O)c1c(COC(C)=O)cccc1S(N)(=O)=O	98 to 100
N#CCC(=O)NC1CCCCC1NC(=O)CC#N (stereo not given)	202 to 204
O=C(O)CSC1c2ccccc2COc2ccc(OCc3ccc4ccccc4n3)cc21 (stereo not given)	174 to 179
COc1ccc(N(CCC(O)CO)S(=O)(=O)c2c(F)c(F)c(F)c(F)c2F)cc1 (stereo not given)	126 to 128
CCCCCCCCCCCCCCc1c[nH]c(C(=O)O)c1	148 to 150
COC(=O)C(OC)C(=S)Nc1cc(Cl)cc(Cl)c1 (stereo not given)	144 to 147
COc1ccc(C(=O)c2cc(-c3ccc(S(C)(=O)=O)cc3)c(N3CCOCC3)s2)cc1	154
CC(=O)c1ccc2c(c1)OCC(C(=O)O)O2 (stereo not given)	159 to 162
CCOC(=O)C(C)(C)NC(=O)c1nnc2ccc(Cl)nn12	132 to 133
CN1C(=O)c2c(c3c4ccccc4[nH]c3c3[nH]c4ccccc4c23)C1=O	> 350
COc1cc(-c2nc(-c3ccc(N(C)C)cc3)c(C)[nH]2)ccc1OP(=O)(O)O	226 to 230
CCOC(=O)C(Sc1ccc(O)cc1)c1ccc(-c2cccs2)cc1 (stereo not given)	103
[N-]=[N+]=C(C(=O)CC1CC(=O)N1)C(=O)OCc1ccc([N+](=O)[O-])cc1 (stereo not given)	114 to 116
COc1ccc(N2CCN(c3c(C)c(C)c4c(c3C)C(N3CCCC3)C(C)(C)O4)CC2)cc1 (stereo not given)	124 to 126
CC(=O)SCCc1ncn(C(c2ccccc2)(c2ccccc2)c2ccccc2)n1	135 to 140
CNC(=O)c1cc2c(c(F)c1F)N(c1ccc(I)cc1C)COC2=O	219 to 223
O=C(Nc1cccc(Nc2ccc3c(c2)NC(=O)C3=Cc2ccc[nH]2)c1)Nc1cccc(C(F)(F)F)c1	253 to 256
CCc1ccc(NC(=S)Nc2cc([N+](=O)[O-])ccc2O)cc1	137 to 138
